According to patent US5169780A, “Enantiomeric enrichment and stereoselective synthesis of chiral amines” (Celgene Corporation, priority 1990, dated 1992):

Assays:
[1] = test system: -aminobutyrate transaminase; details: relative activities, Nakano et al. 1977; cited from earlier work
β-alanine transaminase = details: relative activities, Nakano et al. 1977; cited from earlier work
[2] = solvent-to-aqueous phase partition coefficient of the ketone; type: physicochemical; details: heptane as organic solvent
Description: The organic solvent will normally be one in which the ketone produced is soluble to a greater degree than in water. Solvents in which the ketone has a solvent-to-aqueous phase partition coefficient greater than one are suitable and those with coefficients greater than 8 are preferred. Examples of these are liquid hydrocarbons such as benzene or hexane, halogenated hydrocarbons such as chloroform, dichloromethane or, carbon tetrachloride, various fluorocarbons such as freon, long-chain alcohols such as octanol or decanol, esters such as ethyl acetate, or triglyceride oils, A solvent which typifies this is heptane which has a partition coefficient of ≈24. Supercritical fluids such as supercritical CO2 may also be used.

SMILES	activity of -aminobutyrate transaminase on the substrate [1]	activity of β-alanine transaminase on the substrate (β-alanine transaminase)	partition coefficient (ketone, solvent-to-aqueous phase) [2]
NCCC(=O)O [β-alanine]	3	100	–
NCCCC(=O)O [-aminobutyrate]	100	43	–
CCCCCCC [heptane]	–	–	≈ 24
